We go through 32 molecules from US11661426B2, “Imidazole-containing inhibitors of ALK2 kinase” (BioCryst Pharmaceuticals, Inc., priority 2017, dated 2023).

pIC50: −log10 of the molar value.

ALK2, sequence (Q04771 21-509): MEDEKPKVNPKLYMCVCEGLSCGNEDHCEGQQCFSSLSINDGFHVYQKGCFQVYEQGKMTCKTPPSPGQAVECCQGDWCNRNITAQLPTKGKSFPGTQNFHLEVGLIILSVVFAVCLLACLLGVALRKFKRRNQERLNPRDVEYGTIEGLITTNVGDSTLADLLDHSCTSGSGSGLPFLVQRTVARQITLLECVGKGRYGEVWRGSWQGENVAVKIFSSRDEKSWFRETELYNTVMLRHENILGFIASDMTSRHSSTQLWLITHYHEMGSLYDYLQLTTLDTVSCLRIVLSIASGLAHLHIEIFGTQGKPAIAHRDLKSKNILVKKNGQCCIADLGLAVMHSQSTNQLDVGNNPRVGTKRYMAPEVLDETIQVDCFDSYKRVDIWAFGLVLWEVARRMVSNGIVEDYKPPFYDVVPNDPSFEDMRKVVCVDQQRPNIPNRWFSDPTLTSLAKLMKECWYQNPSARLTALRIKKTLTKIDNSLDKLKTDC

The assay concerns the target ALK2 (Homo sapiens (Human), UniProt Q04771). Description: ALK2 inhibition, LanthaScreen Eu Kinase Binding Assay (ThermoFisher Scientific / Life Technologies). As to conditions: read-out: Measured Ki (IC50) Value for Compounds: IC50. The procedure:
Biochemical assays to measure the inhibitory effects of the compounds were performed by ThermoFisher Scientific (Life Technologies). ALK2 inhibition was tested using LanthaScreen™ Eu Kinase Binding Assay screening protocol.
A general note: Time-resolved FRET reads energy transfer from a long-lived donor to a nearby acceptor.
Broadly, the pIC50 is the negative decadic logarithm of the IC50, by convention in mol/L. As to `OC[C@@H]1CCCN1c1nc(Nc2cn(-c3ccc(Cl)cc3)cn2)c2cccn2n1` [Compound 49c, (S)-(1-(4-((1-(4-chlorophenyl)-1H-imidazol-4-yl)amino)pyrrolo[2,1-f][1,2,4]triazin-2-yl)pyrrolidin-2-yl)methanol], the pIC50 is more than 7.00.
Consider `OC[C@@H]1CCCN1c1nc(Nc2cn(C3CCCC3)cn2)c2cccn2n1` [Compound 50c, (S)-(1-(4-((1-cyclopentyl-1H-imidazol-4-yl)amino)pyrrolo[2,1-f][1,2,4]triazin-2-yl)pyrrolidin-2-yl)methanol], for which the pIC50 is more than 7.00.
In the case of `COc1cc(F)c(CC(=O)N2CCN(c3nc(Nc4cn(C)cn4)c4cccn4n3)CC2)c(F)c1` [Compound 51a, 2-(2,6-difluoro-4-methoxyphenyl)-1-(4-(4-((1-methyl-1H-imidazol-4-yl)amino)pyrrolo[2,1-f][1,2,4]triazin-2-yl)piperazin-1-yl)ethanone] it was 6.00 to 7.00.
On to `COc1cc(F)c(CC(=O)N2CCN(c3nc(Nc4cn(-c5ccccc5)cn4)c4cccn4n3)CC2)c(F)c1` [Compound 52a, 2-(2,6-difluoro-4-methoxyphenyl)-1-(4-(4-((1-phenyl-1H-imidazol-4-yl)amino)pyrrolo[2,1-f][1,2,4]triazin-2-yl)piperazin-1-yl)ethanone], for which the pIC50 was 6.00 to 7.00.
For the molecule `Cn1cnc(Nc2nc(N3CCN(C(=O)Cc4ccccc4)CC3)nn3cccc23)c1` [Compound 53b, 1-(4-(4-((1-methyl-1H-imidazol-4-yl)amino)pyrrolo[2,1-f][1,2,4]triazin-2-yl)piperazin-1-yl)-2-phenylethanone], the pIC50 is 6.00 to 7.00.
`CC(C)(C)OC(=O)N1CCN(c2nc(Nc3cn(-c4ccccc4)cn3)c3sccc3n2)CC1` [Compound 54a, tert-butyl 4-(4-((1-phenyl-1H-imidazol-4-yl)amino)thieno[3,2-d]pyrimidin-2-yl)piperazine-1-carboxylate]: the pIC50 is more than 7.00.
For `COc1ccc(-n2cnc(Nc3nc(N4CCC[C@H]4CO)nn4cccc34)c2)cc1` [Compound 55c, (S)-(1-(4-((1-(4-methoxyphenyl)-1H-imidazol-4-yl)amino)pyrrolo[2,1-f][1,2,4]triazin-2-yl)pyrrolidin-2-yl)methanol], the pIC50 is more than 7.00.
Turning to `COc1cccc(-n2cnc(Nc3nc(N4CCC[C@H]4CO)nn4cccc34)c2)c1` [Compound 56c, (S)-(1-(4-((1-(3-methoxyphenyl)-1H-imidazol-4-yl)amino)pyrrolo[2,1-f][1,2,4]triazin-2-yl)pyrrolidin-2-yl)methanol], the pIC50 is more than 7.00.
For the molecule `COc1cc(-n2cnc(Nc3nc(N4CCC[C@H]4CO)nn4cccc34)c2)cc(OC)c1OC` [Compound 57c, (S)-(1-(4-((1-(3,4,5-trimethoxyphenyl)-1H-imidazol-4-yl)amino)pyrrolo[2,1-f][1,2,4]triazin-2-yl)pyrrolidin-2-yl)methanol], the pIC50 is more than 7.00.
In the case of `OC[C@@H]1CCCN1c1nc(Nc2cn(-c3ccc(F)cc3)cn2)c2sccc2n1` [Compound 58b, (S)-(1-(4-((1-(4-fluorophenyl)-1H-imidazol-4-yl)amino)thieno[3,2-d]pyrimidin-2-yl)pyrrolidin-2-yl)methanol] it was more than 7.00; in that of `N#CC1CC(n2cnc(Nc3nc(N4CCCC4c4ccccn4)nn4cccc34)c2)C1` (centres unmarked) [Compound 59c, 3-(4-((2-(2-(pyridin-2-yl)pyrrolidin-1-yl)pyrrolo[2,1-f][1,2,4]triazin-4-yl)amino)-1H-imidazol-1-yl)cyclobutanecarbonitrile], 6.00 to 7.00; in that of `OC[C@@H]1CCCN1c1nc(Nc2cn(-c3ccc(F)cc3)cn2)c2ccsc2n1` [Compound 60b, (S)-(1-(4-((1-(4-fluorophenyl)-1H-imidazol-4-yl)amino)thieno[2,3-d]pyrimidin-2-yl)pyrrolidin-2-yl)methanol], more than 7.00.
In the case of `CC(C)(C)CC(=O)N1CCN(c2nc(Nc3cn(-c4ccccc4)cn3)c3ccsc3n2)CC1` [Compound 61b, 3,3-dimethyl-1-(4-(4-((1-phenyl-1H-imidazol-4-yl)amino)thieno[2,3-d]pyrimidin-2-yl)piperazin-1-yl)butan-1-one] it was more than 7.00; in that of `CCN(CCO)c1nc(Nc2cn(-c3ccccc3)cn2)c2ccsc2n1` [Compound 62b, 2-(ethyl(4-(1-phenyl-1H-imidazol-4-ylamino)thieno[2,3-d]pyrimidin-2-yl)amino)ethanol], 6.00 to 7.00; in that of `c1ccc([C@@H]2CCCN2c2nc(Nc3cn(C4CCC4)cn3)c3cccn3n2)cc1` [Compound 63a, (S)—N-(1-cyclobutyl-1H-imidazol-4-yl)-2-(2-phenylpyrrolidin-1-yl)pyrrolo[2,1-f][1,2,4]triazin-4-amine], more than 7.00.
The value for `c1ccc([C@@H]2CCCN2c2nc(Nc3cn(C4CCC4)cn3)c3cccn3n2)nc1` [Compound 64a, (S)—N-(1-cyclobutyl-1H-imidazol-4-yl)-2-(2-(pyridin-2-yl)pyrrolidin-1-yl)pyrrolo[2,1-f][1,2,4]triazin-4-amine] was more than 7.00.
On to `OC[C@@H]1CCCN1c1nc(Nc2cn(-c3ccc4cc[nH]c4c3)cn2)c2cccn2n1` [Compound 65c, (S)-(1-(4-((1-(1H-indol-6-yl)-1H-imidazol-4-yl)amino)pyrrolo[2,1-f][1,2,4]triazin-2-yl)pyrrolidin-2-yl)methanol], for which the pIC50 was 6.00 to 7.00.
Take `OC[C@@H]1CCCN1c1nc(Nc2cn(-c3ccccn3)cn2)c2cccn2n1` [Compound 66c, (S)-(1-(4-((1-(pyridin-2-yl)-1H-imidazol-4-yl)amino)pyrrolo[2,1-f][1,2,4]triazin-2-yl)pyrrolidin-2-yl)methanol]: the pIC50 is more than 7.00.
The value for `OC[C@@H]1CCCN1c1nc(Nc2cn(-c3ccc4[nH]ccc4c3)cn2)c2cccn2n1` [Compound 67c, (S)-(1-(4-((1-(1H-indol-5-yl)-1H-imidazol-4-yl)amino)pyrrolo[2,1-f][1,2,4]triazin-2-yl)pyrrolidin-2-yl)methanol] was more than 7.00; that for `N#CC1CC(n2cnc(Nc3nc(N4CCC[C@H]4CO)nn4cccc34)c2)C1` (stereo partly drawn) [Compound 68a, (S)-3-(4-((2-(2-(hydroxymethyl)pyrrolidin-1-yl)pyrrolo[2,1-f][1,2,4]triazin-4-yl)amino)-1H-imidazol-1-yl)cyclobutanecarbonitrile] was more than 7.00; that for `c1ccc(C2CCCN2c2nc(Nc3cn(C4CCCC4)cn3)c3cccn3n2)nc1` (centres unmarked) [Compound 69a, N-(1-cyclopentyl-1H-imidazol-4-yl)-2-(2-(pyridin-2-yl)pyrrolidin-1-yl)pyrrolo[2,1-f][1,2,4]triazin-4-amine] was more than 7.00.
Regarding `OCc1cc2c(Nc3cn(-c4ccccc4)cn3)nc(N3CCC[C@H]3CO)nc2s1` [Compound 70f, (S)-(1-(6-(hydroxymethyl)-4-((1-phenyl-1H-imidazol-4-yl)amino)thieno[2,3-d]pyrimidin-2-yl)pyrrolidin-2-yl)methanol], the pIC50 was more than 7.00.
Take `OC[C@@H]1CCCN1c1nc(Nc2cn(-c3cc[nH]n3)cn2)c2cccn2n1` [Compound 71c, (S)-(1-(4-((1-(1H-pyrazol-3-yl)-1H-imidazol-4-yl)amino)pyrrolo[2,1-f][1,2,4]triazin-2-yl)pyrrolidin-2-yl)methanol]: the pIC50 was more than 7.00.
Take `COc1cc(OC)cc(-n2cnc(Nc3nc(N4CCC[C@H]4CO)nn4cccc34)c2)c1` [Compound 72c, (S)-(1-(4-((1-(3,5-dimethoxyphenyl)-1H-imidazol-4-yl)amino)pyrrolo[2,1-f][1,2,4]triazin-2-yl)pyrrolidin-2-yl)methanol]: the pIC50 was more than 7.00.
The value for `COc1ccc(-n2cnc(Nc3nc(N4CCC[C@H]4CO)nn4cccc34)c2)cc1OC` [Compound 73c, (S)-(1-(4-((1-(3,4-dimethoxyphenyl)-1H-imidazol-4-yl)amino)pyrrolo[2,1-f][1,2,4]triazin-2-yl)pyrrolidin-2-yl)methanol] was more than 7.00; that for `c1ccc(C2CCCN2c2nc(Nc3cn(-c4cc[nH]n4)cn3)c3cccn3n2)nc1` (centres unmarked) [Compound 74a, N-(1-(1H-pyrazol-3-yl)-1H-imidazol-4-yl)-2-(2-(pyridin-2-yl)pyrrolidin-1-yl)pyrrolo[2,1-f][1,2,4]triazin-4-amine] was less than 6.00.
With `COc1cc(-n2cnc(Nc3nc(N4CCC[C@H]4CO)nc4ccsc34)c2)cc(OC)c1OC` [Compound 75b, (S)-(1-(4-((1-(3,4,5-trimethoxyphenyl)-1H-imidazol-4-yl)amino)thieno[3,2-d]pyrimidin-2-yl)pyrrolidin-2-yl)methanol], the pIC50 was more than 7.00.
`OC[C@@H]1CCCN1c1nc(Nc2cn(-c3cccc4ncccc34)cn2)c2cccn2n1` [Compound 76c, (S)-(1-(4-((1-(quinolin-5-yl)-1H-imidazol-4-yl)amino)pyrrolo[2,1-f][1,2,4]triazin-2-yl)pyrrolidin-2-yl)methanol]: the pIC50 is more than 7.00.
With `OCc1cc2nc(N3CCC[C@H]3CO)nc(Nc3cn(-c4ccccc4)cn3)c2s1` [Compound 78f, (S)-(1-(6-(hydroxymethyl)-4-((1-phenyl-1H-imidazol-4-yl)amino)thieno[3,2-d]pyrimidin-2-yl)pyrrolidin-2-yl)methanol], the pIC50 is more than 7.00.
In the case of `CCCC=Cc1ccc2c(Nc3cn(-c4cc(OC)c(OC)c(OC)c4)cn3)nc(N3CCC[C@H]3CO)nn12` [Compound 79d, (S)-(1-(7-(pent-1-en-1-yl)-4-((1-(3,4,5-trimethoxyphenyl)-1H-imidazol-4-yl)amino)pyrrolo[2,1-f][1,2,4]triazin-2-yl)pyrrolidin-2-yl)methanol], the pIC50 is more than 7.00.
In the case of `CC(C)(C)OC(=O)N1CC=C(c2ccc3c(Nc4cn(-c5ccccc5)cn4)nc(N4CCC[C@H]4CO)nn23)CC1` [Compound 80a, (S)-tert-butyl 4-(2-(2-(hydroxymethyl)pyrrolidin-1-yl)-4-(1-phenyl-1H-imidazol-4-ylamino)pyrrolo[1,2-f][1,2,4]triazin-7-yl)-5,6-dihydropyridine-1(2H)-carboxylate] it was 6.00 to 7.00; in that of `Cn1cnc(-n2cnc(Nc3nc(N4CCCC4c4ccccn4)nn4cccc34)c2)c1` (centres unmarked) [Compound 81c, N-(1′-methyl-1′H-[1,4′-biimidazol]-4-yl)-2-(2-(pyridin-2-yl)pyrrolidin-1-yl)pyrrolo[2,1-f][1,2,4]triazin-4-amine], less than 6.00.
